Columns and labels:
CB1R = CB1R (Homo sapiens, UniProt P21554); conditions: cited from earlier work
OPC = conditions: cited from earlier work
[1] = administered to rats; cited from earlier work
SVZ cells [2] = test: SVZ self-renewal assay (secondary neurospheres); type: cell-based, mouse; conditions: primary neurospheres exposed to HGF 50 ng.ml^−1 for 6 days, replated without HGF
SVZ cells [3] = test: SVZ neurosphere forming assay (primary neurospheres); type: cell-based, mouse; conditions: HGF 50 ng.ml^−1, 6 days, SFM with 5 ng/ml EGF and 2.5 ng/ml FGF-2
Procedure: Neurosphere forming and self-renewal assays were performed on SVZ cells seeded at clonal density, 2500 cells per well in 24-well cell culture plates in SFM containing 5 ng/ml EGF and 2.5 ng/ml FGF-2 and supplemented or not (control) with 1 μM Hp or 50 ng.ml^−1 hepatocyte growth factor (carrier free recombinant human HGF, R&D Systems, Lille, France). After 6 days, the numbers of primary neurospheres were determined. For self-renewal assay, neurospheres were collected, dissociated as single cells and seeded in SFM containing 5 ng/ml EGF and 2.5 ng/ml FGF-2 in 24 well plates. After 6 days, the number of secondary neurospheres was counted.
Fluorescence images were recorded using an LSM 510 Meta confocal microscope or an Axioskop 2 Plus fluorescence microscope (both from Carl Zeiss). In all experiments, measurements were performed in the border of SVZ neurospheres where migrating cells form a cell monolayer. For the SVZ neurosphere forming and self-renewal assays the experiments were replicated in five independent culture preparations and each experimental condition was assayed in four different coverslips. For the remaining experiments, each condition was assayed in three different coverslips, and except where otherwise specified, the experiments were replicated in three independent culture preparations. Percentages of TUNEL or BrdU immunoreactive cells in SVZ cell cultures were calculated from cell counts in five independent microscopic fields in each coverslip with a x40 objective (approximately 200 cells per field). Software used was Axiovision, release 4.6 (Carl Zeiss). For SCCl experiments, the percentage of oligodendrocytic-like responding cells (with a Thromb/Hist ratio above 1.3) was calculated on the basis of one microscopic field per coverslip, containing approximately 100 cells (magnification, ×40).
Neural stem-like cells are characterized in vitro by both their capacity to give rise to neurospheres and to self-renew when cultured in the presence of mitogens.

SVZ cells [4] = test: Single cell calcium imaging (SCCI) of oligodendrocytic differentiation; type: cell-based, mouse; conditions: AM251 1 μM co-treated with Hp 1 μM, 7 days, 8 coverslips
Procedure: To investigate the influence of Hp on oligodendrocytic differentiation, SVZ neurospheres were allowed to develop for 7 days Hp (100 nm, 1 μM), in serum free medium devoid of growth factor at 37° C.
To determine the functional differentiation pattern of SVZ cells, we analyzed the variations of intracellular calcium-free levels ([Ca^2+]i) in single cells following stimulation with 50 mM KCl, 100 μM histamine (Sigma-Aldrich, St. Louis, Mo. USA) and 0.1 U/ml thrombin (Sigma-Aldrich) stimulation. KCl depolarization causes an increase in [Ca^2+]i in neurons, whereas stimulation with histamine leads to an increase in [Ca^2+]i in stem/progenitor cells, while thrombin leads to an increase in [Ca^2+]i in oligodendrocytes. SVZ cultures were loaded for 40 minutes with 5 μM Fura—2/AM (Molecular Probes, Carlsbad, Calif., USA), 0.1% fatty acid-free BSA, and 0.02% pluronic acid F-127 (Molecular Probes) in Krebs solution (132 mM NaCl, 4 mM KCl, 1.4 mM MgCl2, 1 mM CaCl2, 6 mM glucose, 10 mM HEPES, pH 7.4), in an incubator with 5% CO2 and 95% atmospheric air at 37° C. After a 10-minute postloading period at room temperature (RT) in the same medium without Fura-2/AM and pluronic acid, to obtain a complete hydrolysis of the probe, the glass coverslip was mounted on an RC-20 chamber in a PH3 platform (Warner Instruments, Hamden, Conn., USA) on the stage of an inverted fluorescence microscope (Axiovert 200, Carl Zeiss). […] The variations of [Ca^2+]i were evaluated by quantifying the ratio of the fluorescence emitted at 510 nm following alternate excitation (750 msec) at 340 and 380 nm, using a Lambda DG4 apparatus (Sutter Instrument, Novato, Calif., USA) and a 510 nm band-pass filter (Carl Zeiss) before fluorescence acquisition with a x40 objective and a CoolSNAP digital camera (Roper Scientific, Trenton, N.J., USA). […] KCl, histamine, and thrombin peaks given by the normalized ratios of fluorescence at 340/380 nm, at the proper time periods, were used to calculate the ratios of the responses to histamine/KCl (Hist/KCl-neuronal-like profile) and to thrombin/histamine (Throm/Hist-oligodendrocytic-like profile).
Fluorescence images were recorded using an LSM 510 Meta confocal microscope or an Axioskop 2 Plus fluorescence microscope (both from Carl Zeiss). […] Percentages of TUNEL or BrdU immunoreactive cells in SVZ cell cultures were calculated from cell counts in five independent microscopic fields in each coverslip with a x40 objective (approximately 200 cells per field). […] For SCCl experiments, the percentage of oligodendrocytic-like responding cells (with a Thromb/Hist ratio above 1.3) was calculated on the basis of one microscopic field per coverslip, containing approximately 100 cells (magnification, ×40). […]

CB1R, sequence (P21554 whole entry): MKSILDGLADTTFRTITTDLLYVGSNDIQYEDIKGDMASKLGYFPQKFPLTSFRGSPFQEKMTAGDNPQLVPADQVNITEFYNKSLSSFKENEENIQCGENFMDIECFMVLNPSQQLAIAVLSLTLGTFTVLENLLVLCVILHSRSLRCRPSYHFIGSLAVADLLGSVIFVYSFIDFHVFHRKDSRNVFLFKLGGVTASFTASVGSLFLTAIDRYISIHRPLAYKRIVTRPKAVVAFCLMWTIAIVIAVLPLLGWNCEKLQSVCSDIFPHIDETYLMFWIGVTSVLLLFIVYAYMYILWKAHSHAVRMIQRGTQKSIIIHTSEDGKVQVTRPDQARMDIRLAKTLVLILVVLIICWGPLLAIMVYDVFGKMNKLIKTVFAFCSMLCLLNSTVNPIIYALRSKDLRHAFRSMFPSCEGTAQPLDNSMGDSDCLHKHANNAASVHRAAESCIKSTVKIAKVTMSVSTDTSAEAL

## RVDPVNFKFLSH (listed as Homo sapiens) [SEQ. ID. 3, N-terminally extended variant of Hp, Arg Val Asp Pro Val Asn Phe Lys Phe Leu Ser His]
CB1R
  activity at CB1R cannabinoid receptors: function as agonists

## Cc1c(C(=O)NN2CCCCC2)nn(-c2ccc(Cl)cc2Cl)c1-c1ccc(Cl)cc1 [rimonabant]
OPC
  OPC differentiation into mature oligodendrocytes: do not induce but impair

## PVNFKWLSH (listed as Homo sapiens) [SEQ ID 4, variant of Hp peptide]
[1]
  periepididymal and visceral fat content compared to the control group: reduced

## COc1ccc(C(=O)c2c(C)n(CCN3CCOCC3)c3cc(I)ccc23)cc1 [AM630]
OPC
  OPC differentiation into mature oligodendrocytes: do not induce but impair

## HGF: carrier free recombinant human HGF, used as a positive control
SVZ cells [2]
  number of secondary neurospheres (control 100%): 120.0±11.54%
SVZ cells [3]
  number of primary neurospheres (control 100%): 121.0±13.14%

## VDPVNFKFLSH (listed as Homo sapiens) [SEQ. ID. 2, N-terminally extended variant of Hp, Val Asp Pro Val Asn Phe Lys Phe Leu Ser His]
CB1R
  activity at CB1R cannabinoid receptors: function as agonists

## Cc1c(C(=O)NN2CCCCC2)nn(-c2ccc(Cl)cc2Cl)c1-c1ccc(I)cc1 [Am 251, reference compound]
SVZ cells [4]
  cells responding with a Throm/Hist ratio above 1.3 (oligodendrocyte-like responding cells): 1.07±0.24%

From patent US20140296153A1, “Oligodendrocyte Differentiation” (priority 2011, published 2014)
